Data: patent publication US9242941B2, “Alkyl, fluoroalkyl-1,4-benzodiazepinone compounds” (BRISTOL-MYERS SQUIBB COMPANY, priority 2012, dated 2016)

Assays:
[1] = system: Human T-cell acute lymphoblastic leukemia cell line TALL-1; assay: Human Tumor Xenograft Models in Mice: TALL-1; assay type: in vivo; conditions: for Antitumor Activity in TALL-1 (LCK), QD dosing / Antitumor Activity in TALL-1 (LCK), BID dosing: Log Cell Kill, oral administration, schedule QDx10, dose unit not given; for Antitumor Activity in TALL-1 (LCK), QD dosing: dose 20 (Ex 1, 52), 12 (Ex 10), 40 (Ex 40); for antitumor activity in the Human Tumor Xenograft Models in mice: oral administration (PO) either BID and/or QD, Table 24 (TALL-1); for Antitumor Activity in TALL-1 (LCK), BID dosing: dose 20 (Ex 35, 37)
human Notch 1 = assay: Notch-CBF1 Transactivation Assay (Notch 1); assay type: cell-based; conditions: read-out: Notch 1 IC50; Notch-CBF1 transactivation luciferase assay in transfected HeLa cells; some values are an average of N experiments
Source text: (§1) Notch-CBF1 Transactivation Assay
(§2) The Notch-CBF1 (C-promoter binding factor I) cell based transactivation assay is based on the ability of the released Notch intracellular domain fragments (NICDs) to function as transcription factors in conjunction with CBF1 and other nuclear factors. Luciferase assays were used to measure the antagonism of Notch-CBF1 transcriptional activity. HeLa cervical cancer cells are transiently co-transfected with pCDNA3.1/Hygro plasmids containing truncated Notch 1, Notch 2, Notch 3, or Notch 4 receptors and a PGL3 luciferase reporter vector containing 4 copies of CBF1 binding site. The cells were then tested for Notch-CBF1 activity in the absence or presence of test compounds. HeLa cells, maintained in DMEM (high glucose with HEPES), 1× glutamine/penicillin/streptomycin and 10% Fetal Bovine serum, were transiently transfected in a T175 Flask (4.5×10^6 cells/flask) using the Monster Transfection Kit (Minis #MIR2906) according to manufacturers specifications. Table 13 denotes respective DNA quantity for the transfections.
(§3) Assay media (5 μL) containing test compounds in final concentrations ranging from 5 μM to 8.4×10^−5 μM (3 fold serial dilutions) were added to the cells and the cell plates were then incubated for 18 hours at 37° C. and 5% CO2. Control wells contained DMSO vehicle (total counts) or 0.5 μM of an in-house small molecule inhibitor (background counts). Duplicates were used for each sample. Luciferase activity was measured after a 20-minute incubation with 50 μl STEADY-GLO® luciferase reagents according to manufacturer's specifications (Promega, Cat. #E2550) and analyzed by Envision plate reader (PerkinElmer, Boston, Mass.).
(§4) The antagonist effect of compounds was expressed as 100×[1−(average sample−average background)/(average total−average background)] where sample is the luciferase activity in the presence of test compound, background is equal to the luciferase activity in the presence of the small molecule inhibitor control and the total is signal induced in DMSO wells.

human Notch 3 = assay: Notch-CBF1 Transactivation Assay (Notch 3); assay type: cell-based; conditions: read-out: Notch 3 IC50; Notch-CBF1 transactivation luciferase assay in transfected HeLa cells; some values are an average of N experiments
Source text: as §1, §2, §3, §4

[2] = human metabolic stability half-life assay; conditions: microsomes, human liver microsomes
Procedure: Metabolic Stability Half-Life Panel
Incubation with Liver Microsomes

[3] = system: human triple negative breast carcinoma cell line MDA-MB-157; assay: Human Tumor Xenograft Models in Mice: MDA-MB-157; assay type: in vivo; conditions: PO, QDx15 (10 day on-2 day off-5 day on); FIG. 14; result in words
Procedure: (§5) Dosed orally; PO, QDx15 (10 day on-2 day off-5 day on). Each symbol represents the median tumor burden of a group of 8 mice.
(§6) Human Tumor Xenograft Models in Mice
(§7) Mice were fed food and water ad libitum.
(§8) Preclinical Chemotherapy Trials
(§9) Tumor growth inhibition is calculated as follows: […]
(§10) In Vivo Antitumor Activity

[4] = system: human triple negative breast carcinoma cell line MDA-MB-468; assay: Human Tumor Xenograft Models in Mice: MDA-MB-468; assay type: in vivo; conditions: PO, QDx15 (10 day on-2 day off-5 day on); FIG. 15; result in words
Procedure: as §5, §6, §7, §8, §9, §10

[5] = system: human PAT70 pancreatic carcinoma cell line; assay: Human Tumor Xenograft Models in Mice: PAT70; assay type: in vivo; conditions: PO, QDx15 (10 day on-2 day off-5 day on); FIG. 16; result in words
Procedure: as §5, §6, §7, §8, §9, §10

[6] = pH 7.4, CYP-mediated metabolic stability half life, NADPH-dependent
[7] = pH 7.4, HLM (t1/2, min), CYP-mediated (NADPH-dependent), 0.5 μM compound, 45 min time course, some values are an average of N experiments

CC(C)[C@H](N)C(=O)OCN1C(=O)[C@@H](NC(=O)[C@H](CCC(F)(F)F)[C@H](CC2CC2)C(N)=O)N=C(c2ccccc2)c2cccc(F)c21 [Example 52, ((3S)-3-(((2R)-2-((1S)-2-Amino-1-(cyclopropylmethyl)-2-oxoethyl)-5,5,5-trifluoropentanoyl)amino)-9-fluoro-2-oxo-5-phenyl-2,3-dihydro-1H-1,4-benzodiazepin-1-yl)methyl L-valinate]
Antitumor Activity in TALL-1 (LCK), QD dosing [1]: 5.7 | antitumor activity in the Human Tumor Xenograft Models in mice ([1]; result in words): showed antitumor activity

NC(=O)[C@@H](CC1CC1)[C@@H](CCC(F)(F)F)C(=O)N[C@H]1N=C(c2ccccc2)c2cccc(F)c2NC1=O [Example 1, (2R,3S)-3-(Cyclopropylmethyl)-N-((3S)-9-fluoro-2-oxo-5-phenyl-2,3-dihydro-1H-1,4-benzodiazepin-3-yl)-2-(3,3,3-trifluoropropyl)succinamide]
IC50 (human Notch 1): 4.2 nM | IC50 (human Notch 3): 6.2 nM | half-life at 0.5 µM [2, 6]: ≥ 30 min | half-life at 0.5 µM [2, 7]: 85 min | Antitumor Activity in TALL-1 (LCK), QD dosing [1]: 4.5 | in vivo antitumor activity, TALL-1 xenograft ([1]; PO, QDx10, FIGS. 12-13, result in words): exhibited antitumor activity | antitumor activity in the Human Tumor Xenograft Models in mice ([1]; result in words): showed antitumor activity | in vivo antitumor activity, MDA-MB-157 xenograft [3]: exhibited antitumor activity | in vivo antitumor activity, MDA-MB-468 xenograft [4]: exhibited antitumor activity | in vivo antitumor activity, PAT70 xenograft [5]: exhibited antitumor activity

Cc1cccc2c1NC(=O)[C@@H](NC(=O)[C@H](CCC(F)(F)F)[C@H](CC1CC1)C(N)=O)N=C2c1cccc(F)c1 [Example 10, (2R,3S)-3-(Cyclopropylmethyl)-N-((3S)-5-(3-fluorophenyl)-9-methyl-2-oxo-2,3-dihydro-1H-1,4-benzodiazepin-3-yl)-2-(3,3,3-trifluoropropyl)succinamide]
IC50 (human Notch 1): 4 nM | IC50 (human Notch 3): 9.7 nM | half-life at 0.5 µM [2, 6]: ≥ 30 min | half-life at 0.5 µM [2, 7]: 72 min | Antitumor Activity in TALL-1 (LCK), QD dosing [1]: >2.8 | antitumor activity in the Human Tumor Xenograft Models in mice ([1]; result in words): showed antitumor activity

CCC[C@H](C(N)=O)[C@@H](CCC(F)(F)F)C(=O)N[C@H]1N=C(c2ccccc2)c2cccc(C(F)(F)F)c2NC1=O [Example 35, (2R,3S)—N-((3S)-2-Oxo-5-phenyl-9-(trifluoromethyl)-2,3-dihydro-1H-1,4-benzodiazepin-3-yl)-3-propyl-2-(3,3,3-trifluoropropyl)succinamide]
IC50 (human Notch 1): 16.1 nM | IC50 (human Notch 3): 12.9 nM | half-life at 0.5 µM [2, 6]: ≥ 30 min | half-life at 0.5 µM [2, 7]: 36 min | Antitumor Activity in TALL-1 (LCK), BID dosing [1]: 3.1 | antitumor activity in the Human Tumor Xenograft Models in mice ([1]; result in words): showed antitumor activity

CCC[C@H](C(N)=O)[C@@H](CCC(F)(F)F)C(=O)N[C@H]1N=C(c2ccccc2)c2cccc(OC)c2NC1=O [Example 40, (2R,3S)—N-((3S)-9-Methoxy-2-oxo-5-phenyl-2,3-dihydro-1H-1,4-benzodiazepin-3-yl)-3-propyl-2-(3,3,3-trifluoropropyl)succinamide]
IC50 (human Notch 1): 6.8 nM | IC50 (human Notch 3): 6.9 nM | half-life at 0.5 µM [2, 6]: ≥ 30 min | half-life at 0.5 µM [2, 7]: 34 min | Antitumor Activity in TALL-1 (LCK), QD dosing [1]: 1.4 | antitumor activity in the Human Tumor Xenograft Models in mice ([1]; result in words): showed antitumor activity

CCC[C@H](C(N)=O)[C@@H](CCC(F)(F)F)C(=O)N[C@H]1N=C(c2ccccc2)c2cccc(F)c2NC1=O [Example 37, (2R,3S)—N-((3S)-9-Fluoro-2-oxo-5-phenyl-2,3-dihydro-1H-1,4-benzodiazepin-3-yl)-3-propyl-2-(3,3,3-trifluoropropyl)succinamide]
IC50 (human Notch 1): 4.4 nM | IC50 (human Notch 3): 11.3 nM | half-life at 0.5 µM [2, 6]: ≥ 30 min | half-life at 0.5 µM [2, 7]: 43 min | Antitumor Activity in TALL-1 (LCK), BID dosing [1]: 2.0 | antitumor activity in the Human Tumor Xenograft Models in mice ([1]; result in words): showed antitumor activity

CCC[C@H](C(N)=O)[C@@H](CCC(F)(F)F)C(=O)N[C@H]1N=C(c2ccccc2)c2cccc(C)c2NC1=O [Example 15, (2R,3S)—N-((3S)-9-Methyl-2-oxo-5-phenyl-2,3-dihydro-1H-1,4-benzodiazepin-3-yl)-3-propyl-2-(3,3,3-trifluoropropyl)succinamide]
IC50 (human Notch 1): 12.7 nM | IC50 (human Notch 3): 9.3 nM | half-life at 0.5 µM [2, 6]: ≥ 30 min | half-life at 0.5 µM [2, 7]: 40 min

Cc1cccc2c1NC(=O)[C@@H](NC(=O)[C@H](CCC(F)(F)F)[C@H](CC1CC1)C(N)=O)N=C2c1ccc(F)cc1 [Example 12, (2R,3S)-3-(Cyclopropylmethyl)-N-((3S)-5-(4-fluorophenyl)-9-methyl-2-oxo-2,3-dihydro-1H-1,4-benzodiazepin-3-yl)-2-(3,3,3-trifluoropropyl)succinamide]
IC50 (human Notch 1): 6.9 nM | IC50 (human Notch 3): 28.3 nM | half-life at 0.5 µM [2, 6]: ≥ 30 min | half-life at 0.5 µM [2, 7]: 104 min

Cc1ccc2c(c1F)NC(=O)[C@@H](NC(=O)[C@H](CCC(F)(F)F)[C@H](CC1CC1)C(N)=O)N=C2c1ccccc1 [Example 18, (2R,3S)-3-(Cyclopropylmethyl)-N-((3S)-9-fluoro-8-methyl-2-oxo-5-phenyl-2,3-dihydro-1H-1,4-benzodiazepin-3-yl)-2-(3,3,3-trifluoropropyl)succinamide]
IC50 (human Notch 1): 6.5 nM | IC50 (human Notch 3): 6.9 nM | half-life at 0.5 µM [2, 6]: ≥ 30 min | half-life at 0.5 µM [2, 7]: > 120 min

CCC[C@H](C(N)=O)[C@@H](CCC(F)(F)F)C(=O)N[C@H]1N=C(c2ccc(Cl)cc2)c2cccc(Cl)c2NC1=O [Example 28, (2R,3S)—N-((3S)-9-Chloro-5-(4-chlorophenyl)-2-oxo-2,3-dihydro-1H-1,4-benzodiazepin-3-yl)-3-propyl-2-(3,3,3-trifluoropropyl)succinamide]
IC50 (human Notch 1): 1.7 nM | IC50 (human Notch 3): 1.7 nM | half-life at 0.5 µM [2, 6]: ≥ 30 min | half-life at 0.5 µM [2, 7]: 39 min
